EC50 data for 27 molecules are collected here from US9908868B2, “Isoindolinone compounds as GPR119 modulators for the treatment of diabetes, obesity, dyslipidemia and related disorders” (SANOFI, priority 2014, dated 2018).

pEC50: −log10 of the molar value.

For this assay, the target named is T1, human GPR119 (Homo sapiens, UniProt Q8TDV5).
T1 construct: expressed in transfected cells
T1 sequence (Q8TDV5 1-335): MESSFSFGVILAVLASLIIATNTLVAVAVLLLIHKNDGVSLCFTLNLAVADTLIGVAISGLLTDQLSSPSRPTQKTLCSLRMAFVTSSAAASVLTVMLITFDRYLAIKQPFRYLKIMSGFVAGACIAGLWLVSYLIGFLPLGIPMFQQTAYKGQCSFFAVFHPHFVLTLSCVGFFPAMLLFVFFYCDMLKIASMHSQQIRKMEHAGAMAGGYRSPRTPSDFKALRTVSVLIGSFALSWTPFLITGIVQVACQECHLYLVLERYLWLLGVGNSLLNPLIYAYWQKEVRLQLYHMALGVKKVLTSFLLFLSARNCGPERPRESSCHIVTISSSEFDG
Kind of assay: Functional cellular assay measuring GPR119-mediated cAMP release (HTRF) in HEK-293 cells stably expressing recombinant human GPR119. It is filed as cell-based. The settings on record: cAMP response, cell line expressing human GPR119, 30 minutes at room temperature. In short, it runs like this: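 HEK-293 cells stably expressing recombinant human GPR119, suspended at 400000 cells/mL in HBSS/20 mM HEPES/0.1% BSA/2 mM IBMX, exposed to compound for 30 minutes at room temperature. cAMP detected by HTRF (665/620 nm ratio) after 1 h with reagents in lysis buffer. EC50 taken as concentration giving 50% of maximal activation.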
Take `CN(C)C(=O)CN1Cc2c(F)cc(N3CC[C@@H](Oc4ccc(OCC5CC5)nc4)C3=O)cc2C1=O` [Example 4-25, 2-[6-[(3R)-3-[[6-(cyclopropylmethoxy)-3-pyridyl]oxy]-2-oxo-pyrrolidin-1-yl]-4-fluoro-1-oxo-isoindolin-2-yl]-N,N-dimethyl-acetamide]: the pEC50 was 7.10.

`O=C(CN1Cc2c(F)cc(N3CC[C@@H](Oc4ccc(OCCC5CC5)nc4)C3=O)cc2C1=O)N1CCCC1` [Example 4-26, 6-[(3R)-3-[[6-(2-cyclopropylethoxy)-3-pyridyl]oxy]-2-oxo-pyrrolidin-1-yl]-4-fluoro-2-(2-oxo-2-pyrrolidin-1-yl-ethyl)isoindolin-1-one]: the pEC50 was 7.32.

On to `CN(C)C(=O)CN1Cc2c(F)cc(N3CC[C@@H](Oc4ccc(OCCC5CC5)nc4)C3=O)cc2C1=O` [Example 4-27, 2-[6-[(3R)-3-[[6-(2-cyclopropylethoxy)-3-pyridyl]oxy]-2-oxo-pyrrolidin-1-yl]-4-fluoro-1-oxo-isoindolin-2-yl]-N,N-dimethyl-acetamide], for which the pEC50 was 7.34.

With `CNC(=O)CN1Cc2c(F)cc(N3CC[C@@H](Oc4ccc(OCCC5CC5)nc4)C3=O)cc2C1=O` [Example 4-28, 2-[6-[(3R)-3-[[6-(2-cyclopropylethoxy)-3-pyridyl]oxy]-2-oxo-pyrrolidin-1-yl]-4-fluoro-1-oxo-isoindolin-2-yl]-N-methyl-acetamide], the pEC50 was 7.31.

As for `O=C(CN1Cc2c(F)cc(N3CC[C@@H](Oc4ccc(OCCC5CC5)nc4)C3=O)cc2C1=O)NCCO` [Example 4-29, 2-[6-[(3R)-3-[[6-(2-cyclopropylethoxy)-3-pyridyl]oxy]-2-oxo-pyrrolidin-1-yl]-4-fluoro-1-oxo-isoindolin-2-yl]-N-(2-hydroxyethyl)acetamide], the pEC50 was 6.80.

Consider `O=C(CN1Cc2ccc(N3CC[C@@H](Oc4ccc(OCC5CC5)nc4)C3=O)cc2C1=O)NCc1nnn[nH]1` [Example 4-30, 2-[6-[(3R)-3-[[6-(cyclopropylmethoxy)-3-pyridyl]oxy]-2-oxo-pyrrolidin-1-yl]-1-oxo-isoindolin-2-yl]-N-(1H-tetrazol-5-ylmethyl)acetamide], for which the negative-log EC50 (pEC50) is 6.13.

On to `COC(=O)CNC(=O)CN1Cc2ccc(N3CC[C@@H](Oc4ccc(OCC5CC5)nc4)C3=O)cc2C1=O` [Example 4-31, methyl 2-[[2-[6-[(3R)-3-[[6-(cyclopropylmethoxy)-3-pyridyl]oxy]-2-oxo-pyrrolidin-1-yl]-1-oxo-isoindolin-2-yl]acetyl]amino]acetate], for which the pEC50 was 6.82.

`O=C(CN1Cc2ccc(N3CC[C@@H](Oc4ccc(OCC5CC5)nc4)C3=O)cc2C1=O)NC(CO)CO` [Example 4-32, 2-[6-[(3R)-3-[[6-(cyclopropylmethoxy)-3-pyridyl]oxy]-2-oxo-pyrrolidin-1-yl]-1-oxo-isoindolin-2-yl]-N-[2-hydroxy-1-(hydroxymethyl)ethyl]acetamide]: the pEC50 is 6.35.

Consider `O=C(CN1Cc2ccc(N3CC[C@@H](Oc4ccc(OCC5CC5)nc4)C3=O)cc2C1=O)N(CCO)CCO` [Example 4-33, 2-[6-[(3R)-3-[[6-(cyclopropylmethoxy)-3-pyridyl]oxy]-2-oxo-pyrrolidin-1-yl]-1-oxo-isoindolin-2-yl]-N,N-bis(2-hydroxyethyl)acetamide], for which the pEC50 is 6.22.

Consider `O=C(CN1Cc2ccc(N3CC[C@@H](Oc4ccc(OCC5CC5)nc4)C3=O)cc2C1=O)NC[C@H](O)CO` [Example 4-34, 2-[6-[(3R)-3-[[6-(cyclopropylmethoxy)-3-pyridyl]oxy]-2-oxo-pyrrolidin-1-yl]-1-oxo-isoindolin-2-yl]-N-[(2S)-2,3-dihydroxypropyl]acetamide], for which the pEC50 is 6.27.

As to `O=C(CN1Cc2ccc(N3CC[C@@H](Oc4ccc(OCC5CC5)nc4)C3=O)cc2C1=O)NC[C@@H](O)CO` [Example 4-35, 2-[6-[(3R)-3-[[6-(cyclopropylmethoxy)-3-pyridyl]oxy]-2-oxo-pyrrolidin-1-yl]-1-oxo-isoindolin-2-yl]-N-[(2R)-2,3-dihydroxypropyl]acetamide], the pEC50 was 6.25.

On to `O=C(CN1Cc2ccc(N3CC[C@@H](Oc4ccc(OCC(F)(F)F)nc4)C3=O)cc2C1=O)NC1CC1` [Example 4-36, N-cyclopropyl-2-[1-oxo-6-[(3R)-2-oxo-3-[[6-(2,2,2-trifluoroethoxy)-3-pyridyl]oxy]pyrrolidin-1-yl]isoindolin-2-yl]acetamide], for which the pEC50 was 6.25.

In the case of `CC(C)NC(=O)CN1Cc2ccc(N3CC[C@@H](Oc4ccc(OCC(F)(F)F)nc4)C3=O)cc2C1=O` [Example 4-37, N-isopropyl-2-[1-oxo-6-[(3R)-2-oxo-3-[[6-(2,2,2-trifluoroethoxy)-3-pyridyl]oxy]pyrrolidin-1-yl]isoindolin-2-yl]acetamide], the negative logarithm of the EC50 (pEC50) was 6.63.

With `CNC(=O)CN1Cc2ccc(N3CC[C@@H](Oc4ccc(OCC(F)(F)F)nc4)C3=O)cc2C1=O` [Example 4-38, N-methyl-2-[1-oxo-6-[(3R)-2-oxo-3-[[6-(2,2,2-trifluoroethoxy)-3-pyridyl]oxy]pyrrolidin-1-yl]isoindolin-2-yl]acetamide], the negative logarithm of the EC50 (pEC50) is 6.88.

As for `CCNC(=O)CN1Cc2ccc(N3CC[C@@H](Oc4ccc(OCC(F)(F)F)nc4)C3=O)cc2C1=O` [Example 4-39, N-ethyl-2-[1-oxo-6-[(3R)-2-oxo-3-[[6-(2,2,2-trifluoroethoxy)-3-pyridyl]oxy]pyrrolidin-1-yl]isoindolin-2-yl]acetamide], the negative logarithm of the EC50 (pEC50) is 6.69.

Take `O=C(CN1Cc2ccc(N3CC[C@@H](Oc4ccc(OCC(F)(F)F)nc4)C3=O)cc2C1=O)N1CCCC1` [Example 4-40, 2-(2-oxo-2-pyrrolidin-1-yl-ethyl)-6-[(3R)-2-oxo-3-[[6-(2,2,2-trifluoroethoxy)-3-pyridyl]oxy]pyrrolidin-1-yl]isoindolin-1-one]: the pEC50 is 7.37.

As to `CCN(CC)C(=O)CN1Cc2ccc(N3CC[C@@H](Oc4ccc(OCC(F)(F)F)nc4)C3=O)cc2C1=O` [Example 4-41, N,N-diethyl-2-[1-oxo-6-[(3R)-2-oxo-3-[[6-(2,2,2-trifluoroethoxy)-3-pyridyl]oxy]pyrrolidin-1-yl]isoindolin-2-yl]acetamide], the pEC50 is 7.40.

Turning to `O=C(CN1Cc2ccc(N3CC[C@@H](Oc4ccc(OCC(F)(F)F)nc4)C3=O)cc2C1=O)N1CCC1` [Example 4-42, 2-[2-(azetidin-1-yl)-2-oxo-ethyl]-6-[(3R)-2-oxo-3-[[6-(2,2,2-trifluoroethoxy)-3-pyridyl]oxy]pyrrolidin-1-yl]isoindolin-1-one], the pEC50 was 7.41.

Turning to `CCOc1ccc(O[C@@H]2CCN(c3cc(F)c4c(c3)C(=O)N(CC#N)C4)C2=O)cn1` [Example 5-01, 2-[6-[(3R)-3-[(6-ethoxy-3-pyridyl)oxy]-2-oxo-pyrrolidin-1-yl]-4-fluoro-1-oxo-isoindolin-2-yl]acetonitrile], the pEC50 was 7.17.

As to `CCOc1ccc(O[C@@H]2CCN(c3cc(F)c4c(c3)C(=O)N(CC(=O)O)C4)C2=O)cn1` [Example 5-02, 2-[6-[(3R)-3-[(6-ethoxy-3-pyridyl)oxy]-2-oxo-pyrrolidin-1-yl]-4-fluoro-1-oxo-isoindolin-2-yl]acetic acid], the negative logarithm of the EC50 (pEC50) was 5.22.

On to `CC1(CN2Cc3c(F)cc(N4CC[C@@H](Oc5ccc(OCCC6CC6)nc5)C4=O)cc3C2=O)COC1` [Example 5-03, 6-[(3R)-3-[[6-(2-cyclopropylethoxy)-3-pyridyl]oxy]-2-oxo-pyrrolidin-1-yl]-4-fluoro-2-[(3-methyloxetan-3-yl)methyl]isoindolin-1-one], for which the pEC50 is 5.60.

Take `CN1Cc2c(F)cc(N3CC[C@@H](Oc4ccc(OCCC5CC5)nc4)C3=O)cc2C1=O` [Example 5-04, 6-[(3R)-3-[[6-(2-cyclopropylethoxy)-3-pyridyl]oxy]-2-oxo-pyrrolidin-1-yl]-4-fluoro-2-methyl-isoindolin-1-one]: the negative logarithm of the EC50 (pEC50) is 5.91.

Consider `CC(C)N1Cc2c(F)cc(N3CC[C@@H](Oc4ccc(OCCC5CC5)nc4)C3=O)cc2C1=O` [Example 5-05, 6-[(3R)-3-[[6-(2-cyclopropylethoxy)-3-pyridyl]oxy]-2-oxo-pyrrolidin-1-yl]-4-fluoro-2-isopropyl-isoindolin-1-one], for which the pEC50 was 5.30.

For the molecule `O=C1c2cc(N3CC[C@@H](Oc4ccc(OCCC5CC5)nc4)C3=O)cc(F)c2CN1CCCO` [Example 5-06, 6-[(3R)-3-[[6-(2-cyclopropylethoxy)-3-pyridyl]oxy]-2-oxo-pyrrolidin-1-yl]-4-fluoro-2-(3-hydroxypropyl)isoindolin-1-one], the negative logarithm of the EC50 (pEC50) is 6.22.

For `CN(C)C(=O)CN1Cc2c(F)cc(N3CC[C@@H](Oc4ccc(OCC(F)(F)F)nc4)C3=O)cc2C1=O` [Example 6-01, 2-[4-fluoro-1-oxo-6-[(3R)-2-oxo-3-[[6-(2,2,2-trifluoroethoxy)-3-pyridyl]oxy]pyrrolidin-1-yl]isoindolin-2-yl]-N,N-dimethyl-acetamide], the pEC50 was 7.11.

With `CN(C)C(=O)CN1Cc2c(F)cc(N3CC[C@@H](Oc4ccc(OCC(C)(C)C)nc4)C3=O)cc2C1=O` [Example 6-02, 2-[6-[(3R)-3-[[6-(2,2-dimethylpropoxy)-3-pyridyl]oxy]-2-oxo-pyrrolidin-1-yl]-4-fluoro-1-oxo-isoindolin-2-yl]-N,N-dimethyl-acetamide], the negative logarithm of the EC50 (pEC50) is 6.90.

On to `C=CCOc1ccc(O[C@@H]2CCN(c3cc(F)c4c(c3)C(=O)N(CC(=O)N(C)C)C4)C2=O)cn1` [Example 6-03, 2-[6-[(3R)-3-[(6-allyloxy-3-pyridyl)oxy]-2-oxo-pyrrolidin-1-yl]-4-fluoro-1-oxo-isoindolin-2-yl]-N,N-dimethyl-acetamide], for which the pEC50 is 7.19.
